Laboratory results published in the NIST ThermoML archive (doi:10.1021/acs.jced.9b00248).
± gives the expanded uncertainty stated by the source.

Assay: mn = molality of the nth substance listed, in mol/kg
Conditions: Liquid; for viscosity: Vibrating wire viscometry; for mass density: Vibrating tube method

[Cl-].[Na+] [sodium chloride] + O
Conditions | mass density [kg/m3] | viscosity [mPa·s]
274.65 K, 1400 kPa, m1 = 0.77 | – | 1.748 ± 0.053
274.65 K, 15300 kPa, m1 = 0.77 | – | 1.718 ± 0.052
274.65 K, 30200 kPa, m1 = 0.77 | – | 1.704 ± 0.052
274.65 K, 50100 kPa, m1 = 0.77 | – | 1.7 ± 0.052
274.83 K, 15210 kPa, m1 = 0.77 | 1039.38 ± 0.69 | –
274.83 K, 30120 kPa, m1 = 0.77 | 1045.95 ± 0.7 | –
274.83 K, 49950 kPa, m1 = 0.77 | 1054.41 ± 0.71 | –
274.83 K, 69810 kPa, m1 = 0.77 | 1062.53 ± 0.73 | –
274.83 K, 99820 kPa, m1 = 0.77 | 1074.13 ± 0.78 | –
274.95 K, 1340 kPa, m1 = 2.5 | 1098.36 ± 0.87 | –
274.95 K, 15260 kPa, m1 = 2.5 | 1103.81 ± 0.88 | –
274.95 K, 30190 kPa, m1 = 2.5 | 1109.5 ± 0.89 | –
274.95 K, 50040 kPa, m1 = 2.5 | 1116.83 ± 0.92 | –
274.95 K, 69930 kPa, m1 = 2.5 | 1123.92 ± 0.97 | –
274.95 K, 99990 kPa, m1 = 2.5 | 1134.12 ± 1.1 | –
296.19 K, 1330 kPa, m1 = 2.5 | 1090.47 ± 0.85 | –
296.19 K, 15240 kPa, m1 = 2.5 | 1095.73 ± 0.86 | –
296.19 K, 30160 kPa, m1 = 2.5 | 1101.16 ± 0.87 | –
296.19 K, 50020 kPa, m1 = 2.5 | 1108.18 ± 0.92 | –
296.19 K, 69880 kPa, m1 = 2.5 | 1115.02 ± 0.96 | –
296.19 K, 99980 kPa, m1 = 2.5 | 1124.82 ± 1 | –
296.22 K, 1380 kPa, m1 = 0.77 | 1028.25 ± 0.69 | –
296.22 K, 15220 kPa, m1 = 0.77 | 1034.12 ± 0.7 | –
296.22 K, 49930 kPa, m1 = 0.77 | 1048.04 ± 0.71 | –
296.22 K, 69810 kPa, m1 = 0.77 | 1055.61 ± 0.72 | –
296.22 K, 99840 kPa, m1 = 0.77 | 1066.51 ± 0.76 | –
323.3 K, 1380 kPa, m1 = 2.5 | 1077.94 ± 0.83 | –
323.3 K, 15290 kPa, m1 = 2.5 | 1083.2 ± 0.84 | –
323.3 K, 30220 kPa, m1 = 2.5 | 1088.58 ± 0.85 | –
323.3 K, 50060 kPa, m1 = 2.5 | 1095.53 ± 0.91 | –
323.3 K, 69950 kPa, m1 = 2.5 | 1102.24 ± 0.94 | –
323.3 K, 100010 kPa, m1 = 2.5 | 1111.99 ± 1 | –
323.33 K, 1340 kPa, m1 = 0.77 | 1017.8 ± 0.69 | –
323.33 K, 15260 kPa, m1 = 0.77 | 1023.47 ± 0.69 | –
323.33 K, 30160 kPa, m1 = 0.77 | 1029.36 ± 0.7 | –
323.33 K, 69840 kPa, m1 = 0.77 | 1044.3 ± 0.71 | –
323.33 K, 99890 kPa, m1 = 0.77 | 1054.9 ± 0.74 | –
348.21 K, 1360 kPa, m1 = 2.5 | 1064.12 ± 0.82 | –
348.21 K, 1380 kPa, m1 = 0.77 | 1004.37 ± 0.68 | –
348.21 K, 15260 kPa, m1 = 0.77 | 1010.15 ± 0.68 | –
348.21 K, 15270 kPa, m1 = 2.5 | 1069.47 ± 0.83 | –
348.21 K, 30180 kPa, m1 = 0.77 | 1016.18 ± 0.69 | –
348.21 K, 30200 kPa, m1 = 2.5 | 1075.01 ± 0.84 | –
348.21 K, 50000 kPa, m1 = 0.77 | 1023.83 ± 0.69 | –
348.21 K, 50060 kPa, m1 = 2.5 | 1082.15 ± 0.85 | –
348.21 K, 69880 kPa, m1 = 0.77 | 1031.26 ± 0.69 | –
348.21 K, 69960 kPa, m1 = 2.5 | 1089.02 ± 0.94 | –
348.21 K, 99920 kPa, m1 = 0.77 | 1041.89 ± 0.72 | –
348.21 K, 100020 kPa, m1 = 2.5 | 1098.91 ± 1 | –
348.34 K, 1400 kPa, m1 = 0.77 | – | 0.412 ± 0.013
348.34 K, 15300 kPa, m1 = 0.77 | – | 0.416 ± 0.013
348.34 K, 30200 kPa, m1 = 0.77 | – | 0.421 ± 0.014
348.34 K, 50000 kPa, m1 = 0.77 | – | 0.429 ± 0.014
348.34 K, 69900 kPa, m1 = 0.77 | – | 0.433 ± 0.014
373.22 K, 1380 kPa, m1 = 2.5 | 1047.69 ± 0.81 | –
373.22 K, 15310 kPa, m1 = 2.5 | 1053.49 ± 0.82 | –
373.22 K, 30230 kPa, m1 = 2.5 | 1059.36 ± 0.83 | –
373.22 K, 50090 kPa, m1 = 2.5 | 1066.79 ± 0.84 | –
373.22 K, 69960 kPa, m1 = 2.5 | 1073.94 ± 0.86 | –
373.22 K, 100040 kPa, m1 = 2.5 | 1084.13 ± 0.98 | –
373.25 K, 1400 kPa, m1 = 0.77 | 988.09 ± 0.67 | –
373.25 K, 15310 kPa, m1 = 0.77 | 994.18 ± 0.67 | –
373.25 K, 30220 kPa, m1 = 0.77 | 1000.44 ± 0.67 | –
373.25 K, 50060 kPa, m1 = 0.77 | 1008.5 ± 0.68 | –
373.25 K, 69930 kPa, m1 = 0.77 | 1016.2 ± 0.69 | –
373.25 K, 99960 kPa, m1 = 0.77 | 1027.15 ± 0.69 | –
373.31 K, 1400 kPa, m1 = 0.77 | – | 0.31 ± 0.01
373.31 K, 30200 kPa, m1 = 0.77 | – | 0.318 ± 0.011
373.31 K, 50000 kPa, m1 = 0.77 | – | 0.323 ± 0.011
373.31 K, 69900 kPa, m1 = 0.77 | – | 0.329 ± 0.011
373.31 K, 100000 kPa, m1 = 0.77 | – | 0.338 ± 0.011
398.18 K, 1400 kPa, m1 = 0.77 | – | 0.247 ± 0.009
398.18 K, 15300 kPa, m1 = 0.77 | – | 0.251 ± 0.009
398.18 K, 30200 kPa, m1 = 0.77 | – | 0.256 ± 0.009
398.18 K, 50100 kPa, m1 = 0.77 | – | 0.26 ± 0.009
398.18 K, 70000 kPa, m1 = 0.77 | – | 0.265 ± 0.009
398.18 K, 100000 kPa, m1 = 0.77 | – | 0.273 ± 0.009
398.29 K, 1390 kPa, m1 = 2.5 | 1029.58 ± 0.94 | –
398.29 K, 15300 kPa, m1 = 2.5 | 1035.58 ± 0.94 | –
398.29 K, 30230 kPa, m1 = 2.5 | 1041.92 ± 0.93 | –
398.29 K, 50080 kPa, m1 = 2.5 | 1049.89 ± 0.93 | –
398.29 K, 69980 kPa, m1 = 2.5 | 1057.41 ± 0.94 | –
398.29 K, 100050 kPa, m1 = 2.5 | 1068.15 ± 0.97 | –
398.81 K, 1460 kPa, m1 = 0.77 | 969.16 ± 0.64 | –
398.81 K, 15370 kPa, m1 = 0.77 | 975.7 ± 0.65 | –
398.81 K, 30260 kPa, m1 = 0.77 | 982.49 ± 0.65 | –
398.81 K, 50080 kPa, m1 = 0.77 | 991.06 ± 0.66 | –
398.81 K, 69950 kPa, m1 = 0.77 | 999.13 ± 0.66 | –
398.81 K, 99990 kPa, m1 = 0.77 | 1010.69 ± 0.67 | –
423.31 K, 15300 kPa, m1 = 0.77 | – | 0.206 ± 0.008
423.31 K, 30200 kPa, m1 = 0.77 | – | 0.212 ± 0.008
423.31 K, 50100 kPa, m1 = 0.77 | – | 0.216 ± 0.008
423.31 K, 70000 kPa, m1 = 0.77 | – | 0.22 ± 0.008
423.31 K, 100000 kPa, m1 = 0.77 | – | 0.228 ± 0.008
423.62 K, 1410 kPa, m1 = 2.5 | 1009.24 ± 0.98 | –
423.62 K, 15330 kPa, m1 = 2.5 | 1015.81 ± 0.97 | –
423.62 K, 30250 kPa, m1 = 2.5 | 1022.75 ± 0.81 | –
423.62 K, 50100 kPa, m1 = 2.5 | 1031.25 ± 0.81 | –
423.62 K, 69990 kPa, m1 = 2.5 | 1039.38 ± 0.82 | –
423.62 K, 100050 kPa, m1 = 2.5 | 1050.77 ± 0.96 | –
423.73 K, 1450 kPa, m1 = 0.77 | 947.66 ± 0.63 | –
423.73 K, 15370 kPa, m1 = 0.77 | 954.86 ± 0.64 | –
423.73 K, 30270 kPa, m1 = 0.77 | 962.29 ± 0.66 | –
423.73 K, 50110 kPa, m1 = 0.77 | 971.57 ± 0.66 | –
423.73 K, 69960 kPa, m1 = 0.77 | 980.32 ± 0.67 | –
423.73 K, 100000 kPa, m1 = 0.77 | 992.59 ± 0.66 | –
448.27 K, 30300 kPa, m1 = 0.77 | – | 0.181 ± 0.007
448.27 K, 50100 kPa, m1 = 0.77 | – | 0.185 ± 0.007
448.27 K, 70000 kPa, m1 = 0.77 | – | 0.19 ± 0.007
448.27 K, 100000 kPa, m1 = 0.77 | – | 0.197 ± 0.007
448.85 K, 1410 kPa, m1 = 2.5 | 987.39 ± 1 | –
448.85 K, 15330 kPa, m1 = 2.5 | 994.66 ± 0.98 | –
448.85 K, 30260 kPa, m1 = 2.5 | 1002.41 ± 0.97 | –
448.85 K, 50110 kPa, m1 = 2.5 | 1011.56 ± 0.8 | –
448.97 K, 1460 kPa, m1 = 0.77 | 923.83 ± 0.62 | –
448.97 K, 15380 kPa, m1 = 0.77 | 932.02 ± 0.63 | –
448.97 K, 30290 kPa, m1 = 0.77 | 940.31 ± 0.63 | –
448.97 K, 50120 kPa, m1 = 0.77 | 950.53 ± 0.66 | –
448.97 K, 69980 kPa, m1 = 0.77 | 960.05 ± 0.67 | –
448.97 K, 100000 kPa, m1 = 0.77 | 973.43 ± 0.66 | –
